Laboratory results taken from US20130123227A1, “NOVEL ORGANO-PALLADIUM COMPLEXES” (priority 2010, published 2013).

Assay: Seizure incidence in mice
Type: in vivo
Excerpt: The original Pd-lipoic acid complex provides a structure in which the palladium is safely sequestered, and which is also active in the lipoic acid binding site in mitochondrial complex I, thereby coupling to enzymatic charge transfer. […] To eliminate seizure activity, the G10 stage of the synthetic complex was further investigated and combined with various substances, until there were no seizures. This was ultimately achieved by complexing with zinc-amino acid complexes.

Question: For `C[C@@H](O)[C@H](N)C(=O)O.C[C@@H](O)[C@H](N)C(=O)O.[Zn]` [Zn-bis(threonine)], which seizures is on record?
Answer: modulates and inhibits the seizure potentials
